Test results as given in article PMC12693764, “Antidepressant-like Effects of Garcinia nigrolineata Resin Extract in a Chronic Mild Stress Mouse Model: Modulation of Monoaminergic and HPA-Axis Pathways” (Plants, 2025).
Counter-ions that a name gives are not always drawn.

What was measured:
[1] = system: MAO-A; conditions: cited from earlier work; for selective MAO-A inhibition: GNR-E constituents, ref Previous studies
[2] = system: depressive-like behaviors; assay: Chronic mild stress (CMS) mouse model of depression, behaviours overall; assay type: in vivo, male ICR mice; conditions: CMS mice, oral GNR-E 50, 150, 450 mg/kg/day, imipramine 20 mg/kg/day
Procedure: The CMS procedure, adapted from Willner, was applied to experimental mice over 48 days. Seventy-two mice were randomly assigned to six groups: a non-stress control group and four CMS-exposed groups for 6 weeks. Stressors included a tilted cage at 45° (12 h), restricted food access (five micro pellets, 1 h), empty bottle exposure (3 h), wet cage (200 mL water in 100 g sawdust bedding, 21 h), reversed light–dark cycle (36 h), intermittent sound (3 and 5 h), paired caging (2 h), and food/water deprivation (18 h), applied randomly weekly and repeated over 6 weeks (Figure 11). The non-stressed group was maintained under standard conditions. Mice were randomly divided into six groups […]. The non-stress group received 0.5% sodium carboxymethylcellulose (SCMC; 1 mL/kg, p.o.), while the CMS group received 0.5% SCMC (1 mL/kg, p.o.). […] All treatments were given daily for 3 weeks, starting on day 21, at 8:00 a.m., one hour before behavioral testing.

[3] = system: CMS-induced anhedonia behavior; assay: Sucrose preference (consumption) test in CMS mice; assay type: in vivo, male ICR mice; conditions: imipramine 20 mg/kg p.o. daily, by week 4
Procedure: Five-week-old male ICR mice (15–20 g) were obtained from Nomura Siam International (Bangkok, Thailand) and acclimatized for seven days prior to experimentation. The study protocol adhered to the Guiding Principle for the Care and Use of Animals (NIH Publications #8-23, revised 2011) and was approved by the Animal Ethics Committee of Khon Kaen University (approval No. IACUC-KKU-121/64), complying with ARRIVE guideline 2.0. […] Behavioral experiments were conducted between 07:00 and 17:00 h. The CMS procedure, adapted from Willner, was applied to experimental mice over 48 days. Seventy-two mice were randomly assigned to six groups: a non-stress control group and four CMS-exposed groups for 6 weeks. […] The amount consumed each day was recorded and used to group the mice and establish the baseline sucrose consumption before initiating the chronic stress procedure. During the subsequent experimental period (week 1–6), sucrose consumption was measured weekly using the same deprivation and testing conditions under chronic stress. The weight of each mouse and the amount of sucrose solution consumed were recorded and calculated as the amount of sucrose intake g/kg body weight).

[4] = system: norepinephrine (NE); assay: Norepinephrine (NE) levels in frontal cortex and hippocampus of CMS mice; assay type: in vivo, male ICR mice; conditions: daily imipramine 20 mg/kg or GNR-E 450 mg/kg, vs vehicle-treated CMS group
Procedure: (§1) The CMS procedure, adapted from Willner, was applied to experimental mice over 48 days. Seventy-two mice were randomly assigned to six groups: a non-stress control group and four CMS-exposed groups for 6 weeks. Stressors included a tilted cage at 45° (12 h), restricted food access (five micro pellets, 1 h), empty bottle exposure (3 h), wet cage (200 mL water in 100 g sawdust bedding, 21 h), reversed light–dark cycle (36 h), intermittent sound (3 and 5 h), paired caging (2 h), and food/water deprivation (18 h), applied randomly weekly and repeated over 6 weeks (Figure 11). The non-stressed group was maintained under standard conditions.
(§2) Mice were randomly divided into six groups (n = 15). The non-stress group received 0.5% sodium carboxymethylcellulose (SCMC; 1 mL/kg, p.o.), while the CMS group received 0.5% SCMC (1 mL/kg, p.o.). […]
Brain supernatant (0.2 mL) was combined with 0.1 mL sodium acetate buffer (pH 6.9), 0.05 mL HCl (0.4 M), and 0.1 mL iodine solution (0.1 M in ethanol) for oxidation. […] Excitation and emission spectra were recorded at 395 nm and 485 nm, respectively, using a calibrated spectrofluorometer. Norepinephrine concentrations were calculated from a standard curve (0, 50, 100, 140, 220, 280, 300 µg/mL) prepared in distilled water and butanol/HCl (1:2 ratio).

[5] = system: serotonin (5-HT); assay: Serotonin (5-HT) levels in frontal cortex and hippocampus of CMS mice; assay type: in vivo, male ICR mice; conditions: daily imipramine 20 mg/kg or GNR-E 450 mg/kg, vs vehicle-treated CMS group
Procedure: as §1, §2
Serotonin levels in mouse brain extracts were quantified using a modified fluorometric method.A 0.2 mL brain extract sample was mixed with 0.25 mL O-phthaldialdehyde (Sigma-Aldrich, St. Louis, MO, USA) and heated to 100 °C for 10 min to form a fluorophore. Levels were measured spectrofluorometrically at 340 nm (excitation) and 470 nm (emission) after cooling to room temperature. Concentrations were determined against a calibration curve (0, 25, 50, 100, 200, 300, 400 µg/mL) using the equation Y = AX + B, expressed as µg/mL.

[6] = system: NET, α2A, and α2C; assay: qPCR of noradrenergic biomarker genes in frontal cortex and hippocampus of CMS mice; assay type: in vivo, male ICR mice
Procedure: as §1
(§3) Mice were randomly divided into six groups (n = 15). The non-stress group received 0.5% sodium carboxymethylcellulose (SCMC; 1 mL/kg, p.o.), while the CMS group received 0.5% SCMC (1 mL/kg, p.o.). The CMS + imipramine (IMP) group was administered imipramine hydrochloride (20 mg/kg, p.o.), and the CMS + GNR-E groups received GNR-E at 50, 150, and 450 mg/kg (p.o.), respectively. All treatments were given daily for 3 weeks, starting on day 21, at 8:00 a.m., one hour before behavioral testing.
Following behavioral tests, mice were anesthetized with […] (Nembutal®, Ceva Sante Animal, Libourne, France) at 60 mg/kg (i.p.) and decapitated. Blood and brain samples were collected immediately. Blood was centrifuged at 3000 rpm at 21 °C for 20 min to obtain serum for ELISA analysis. […]
(§4) Total RNA was extracted from frontal cortex (FC) and hippocampus (HP) using TRLzol® reagent (Thermo Fisher Scientific Inc., San Jose, CA, USA), with purity and quantity assessed via UV spectrophotometry. […] Double-stranded DNA was quantified using SYBR Green master mix (Thermo Fisher Scientific Inc., San Jose, CA, USA) in a 20 µL reaction containing 2X SYBR Green PCR Master Mix, 10 nM of each primer, and 5 µL cDNA. […] Glyceraldehyde 3-phosphate dehydrogenase (GAPDH) mRNA served as the housekeeping gene, and fold differences were calculated using the 2^−∆∆CT method, incorporating standard deviation into the fold-difference calculation.

[7] = system: glucocorticoid receptor (GR) and serum/glucocorticoid-regulated kinase-1 (SGK-1); assay: qPCR of HPA-axis genes in frontal cortex and hippocampus of CMS mice; assay type: in vivo, male ICR mice; conditions: FC and HP, daily imipramine or GNR-E 50, 150, 450 mg/kg, vs vehicle-treated CMS group
Procedure: as §1
Mice were randomly divided into six groups (n = 15). […]
as §4

[8] = system: SERT, 5-HT1A, 5-HT1B, 5-HT2A, 5-HT2C, and 5-HT7; assay: qPCR of serotonergic biomarker genes in frontal cortex and hippocampus of CMS mice; assay type: in vivo, male ICR mice
Description: The CMS procedure, adapted from Willner [4], was applied to experimental mice over 48 days. Seventy-two mice were randomly assigned to six groups: a non-stress control group and four CMS-exposed groups for 6 weeks.
The frontal cortex (FC) and hippocampus (HP) were dissected from the brain for serotonin (5-HT), norepinephrine (NE) level assessments, and RT-qPCR analyses.
Total RNA was extracted from frontal cortex (FC) and hippocampus (HP) using TRLzol® reagent (Thermo Fisher Scientific Inc., San Jose, CA, USA), with purity and quantity assessed via UV spectrophotometry. Complementary DNA (cDNA) was synthesized using 10 mM dNTP, 50 µM oligo (dT)12-13 primer, and SuperScript® III reverse transcriptase (200 U/µL) in a FlexCycler2 PCR Thermal Cycler (Analytik Jena, Thuringia, Germany). Single-stranded DNA was annealed to gene-specific primers (Pacific Science, Bangkok, Thailand) at optimized temperatures, followed by extension. Double-stranded DNA was quantified using SYBR Green master mix (Thermo Fisher Scientific Inc., San Jose, CA, USA) in a 20 µL reaction containing 2X SYBR Green PCR Master Mix, 10 nM of each primer, and 5 µL cDNA. […] Melting curve analysis was conducted post-amplification. Glyceraldehyde 3-phosphate dehydrogenase (GAPDH) mRNA served as the housekeeping gene, and fold differences were calculated using the 2^−∆∆CT method, incorporating standard deviation into the fold-difference calculation [30].

[9] = system: serum corticosterone (CORT); assay: Serum corticosterone (CORT) ELISA in CMS mice; assay type: in vivo, male ICR mice; conditions: daily imipramine 20 mg/kg or GNR-E 50, 150 and 450 mg/kg, p < 0.001 vs vehicle-treated CMS group
Procedure: as §1
as §3, with “testing. […]” for “testing.”
Corticosterone levels were measured using an enzyme-linked immunosorbent assay (ELISA) kit (ab108821, Abcam Ltd., Cambridge, Cambridgeshire, UK) following the manufacturer’s instructions. […]

[10] = system: immobility; parameters: method as in Sahu et al.; conditions: α-mangostin from G. mangostana, by elevating 5-HT; ref Sahu et al.; cited from earlier work
[11] = system: antidepressant-like properties; conditions: through monoaminergic modulation; cited from earlier work
[12] = system: MAO-B; conditions: cited from earlier work; for MAO-B inhibition (targeting): GNR-E constituents, ref Previous studies
[13] = FC and HP, imipramine, GNR-E 150–450 mg/kg
[14] = imipramine, GNR-E 150–450 mg/kg

## cowagarcinone A
[1]
  selective MAO-A inhibition: selectively inhibiting MAO-A

## COc1c(O)cc2oc3cc(O)c(CC=C(C)C)c(O)c3c(=O)c2c1C/C=C(\C)CCC=C(C)C [cowanin]
[1]
  selective MAO-A inhibition: selectively inhibiting MAO-A
[1]; ref Our previous study
  MAO-A inhibition, rank among constituents: most potent toward MAO-A

## CN(C)CCCN1c2ccccc2CCc2ccccc21 [imipramine, imipramine hydrochloride]
[2]
  depressive-like behaviors: significantly improved depressive-like behaviors
[3]
  sucrose intake (2% sucrose solution): significant increase in sucrose intake
[4]
  NE levels in frontal cortex and hippocampus: significantly restored 5-HT and NE levels
[5]
  5-HT levels in frontal cortex and hippocampus: significantly restored 5-HT and NE levels
[6]; FC and HP, daily imipramine or GNR-E, highest dose greatest effect
  CMS-increased expression of noradrenergic genes (NET, α2A, α2C): significantly attenuated
[6]; [13]
  CMS-upregulated NET mRNA expression: reversed
[6]; [14]
  CMS-upregulated α2A and α2C receptor expression: reversed
[7]
  CMS-induced changes in SGK-1 (increased) and GR (decreased) mRNA levels: significantly reversed these changes
[8]; FC and HP, daily imipramine 20 mg/kg or GNR-E 50, 150, 450 mg/kg, vs vehicle-treated CMS group
  CMS-induced upregulation of serotonergic biomarker genes (SERT, 5-HT1A, 5-HT1B, 5-HT2A, 5-HT2C, 5-HT7): significantly reduced these elevations
[8]; FC and HP, imipramine, GNR-E 450 mg/kg
  CMS-increased 5-HT1A and 5-HT1B mRNA expression: reversed
[8]; [13]
  CMS-upregulated SERT mRNA expression: reversed
[8]; [14]
  CMS-elevated 5-HT2A, 5-HT2C, and 5-HT7 receptor expression: mitigated
[9]
  serum CORT levels: significantly reduced these elevated CORT levels

## COc1c(O)cc2oc3cc(O)c(CC=C(C)C)c(O)c3c(=O)c2c1CC=C(C)C [α-mangostin]
[10]
  immobility: reducing immobility
[11]
  antidepressant-like properties: antidepressant-like properties
[12]
  MAO-B inhibition (targeting): targeting MAO-B
[12]; ref Our previous study
  MAO-B inhibition, relative strength: stronger MAO-B inhibition

## xanthochymusxanthone A
[1]
  selective MAO-A inhibition: selectively inhibiting MAO-A

## cowaxanthone
[1]
  selective MAO-A inhibition: selectively inhibiting MAO-A

## COc1cc2oc3cc(O)c(CC=C(C)C)c(O)c3c(=O)c2c(CC=C(C)C)c1OC [cowaxanthone B]
[12]
  MAO-B inhibition (targeting): targeting MAO-B
